This is an account of results in paper PMC11587516 (ACS Chemical Neuroscience, 2024).

One data set has as its target T1, hGAT3 (Homo sapiens, UniProt P48066).
T1 construct: expressed in transfected cells
T1 sequence (P48066 1-632): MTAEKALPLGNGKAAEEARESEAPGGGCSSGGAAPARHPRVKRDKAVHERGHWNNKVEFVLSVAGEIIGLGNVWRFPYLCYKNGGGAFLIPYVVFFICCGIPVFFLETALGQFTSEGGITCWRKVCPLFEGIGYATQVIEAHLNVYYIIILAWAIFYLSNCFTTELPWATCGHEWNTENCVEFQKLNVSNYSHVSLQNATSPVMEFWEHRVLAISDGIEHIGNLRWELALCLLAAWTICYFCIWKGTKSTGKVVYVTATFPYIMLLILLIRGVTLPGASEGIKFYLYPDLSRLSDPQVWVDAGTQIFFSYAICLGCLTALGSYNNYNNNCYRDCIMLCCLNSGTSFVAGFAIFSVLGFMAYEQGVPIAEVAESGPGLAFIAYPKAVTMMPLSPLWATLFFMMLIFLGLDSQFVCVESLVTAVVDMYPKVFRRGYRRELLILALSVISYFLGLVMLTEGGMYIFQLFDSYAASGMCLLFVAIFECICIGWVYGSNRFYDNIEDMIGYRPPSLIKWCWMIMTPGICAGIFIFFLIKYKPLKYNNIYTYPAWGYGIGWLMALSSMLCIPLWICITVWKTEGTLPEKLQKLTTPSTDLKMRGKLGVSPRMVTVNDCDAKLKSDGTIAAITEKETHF
Description: [3H]GABA uptake assay, CHO cells stably expressing hGAT3. Type of data set: cell-based.

Data set [1] relates to SH-SY5Y neuroblastoma cells. Description: SH-SY5Y viability, MTS assay, 72 h. Type of data set: cell-based, human. To be noted: 0.1-100 µM. The text has this: OC(=O)[C@H]1CNCC[C@@H]1S OC(=O)CCCCCCN1C=CN=C1
OC(=O)C1CCNCC1 N[C@]12C[C@H]1[C@@H](CC2)C(O)=O
OC(=O)C1=CCNCC1 N[C@H]1C[C@@H]1CC(O)=O
O[C@@H]1CNCC[C@H]1C(O)=O N[C@@H]1C[C@@H]1CC(O)=O
OC(=O)CCCC1=NC=CN1 N[C@H]1C[C@H]1CC(O)=O
OC(=O)\C=C\C1=NC=CN1 NC[C@H]1C[C@H]1C(O)=O
OC(=O)\C=C\C1=CNC=N1 NC[C@@H]1C[C@@H]1C(O)=O
OC(=O)\C=C\C1=CN=CN1 NC[C@@H]1C[C@H]1C(O)=O
OC(=O)CCC1=CNC=N1 NC[C@H]1C[C@@H]1C(O)=O
OC(=O)CCC1=CN=CN1 NC1=CC=C(C=N1)C(O)=O
OC(=O)CCN1C=CN=C1 NC1=NC=C(C=N1)C(O)=O
OC(=O)CCCC1=NC=CN1 NC(=N)N1CCC(CC1)C(O)=O
S2. IC50 determination at GAT3 stable GAT3-CHO, compound 9
Figure S1. IC 50 determination for compound 9. Data represent one of three independent experiments, each performed in three technical replicates.
S3. […]
The influence of compound 9 on viability of SH-SY5Y neuroblastoma cells was determined using Aqueous Non-Radioactive Cell Proliferation Assay. […] Upon adding MTS and following 2h incubation, cell viability was calculated and […]
The effect of compound 9 on viability and proliferation of SH-SY5Y was determined with CellTiter 96® Aqueous Non-Radioactive Cell Proliferation Assay (MTS, Promega, Madison, WI, USA). […] Next MTS was added in fresh medium and after 2h of incubation the absorbance was measured at 490 nm using a microplate reader EnSpire (PerkinElmer, Waltham, MA USA). All results were shown as mean ± SD calculated from two independent experiments. […]
For orientation: Tetrazolium dyes change colour on reduction, which living cells bring about.

The target of a further data set is T2, hBGT1 (Homo sapiens, UniProt P48065).
T2 construct: expressed in transfected cells
T2 sequence (P48065 1-614): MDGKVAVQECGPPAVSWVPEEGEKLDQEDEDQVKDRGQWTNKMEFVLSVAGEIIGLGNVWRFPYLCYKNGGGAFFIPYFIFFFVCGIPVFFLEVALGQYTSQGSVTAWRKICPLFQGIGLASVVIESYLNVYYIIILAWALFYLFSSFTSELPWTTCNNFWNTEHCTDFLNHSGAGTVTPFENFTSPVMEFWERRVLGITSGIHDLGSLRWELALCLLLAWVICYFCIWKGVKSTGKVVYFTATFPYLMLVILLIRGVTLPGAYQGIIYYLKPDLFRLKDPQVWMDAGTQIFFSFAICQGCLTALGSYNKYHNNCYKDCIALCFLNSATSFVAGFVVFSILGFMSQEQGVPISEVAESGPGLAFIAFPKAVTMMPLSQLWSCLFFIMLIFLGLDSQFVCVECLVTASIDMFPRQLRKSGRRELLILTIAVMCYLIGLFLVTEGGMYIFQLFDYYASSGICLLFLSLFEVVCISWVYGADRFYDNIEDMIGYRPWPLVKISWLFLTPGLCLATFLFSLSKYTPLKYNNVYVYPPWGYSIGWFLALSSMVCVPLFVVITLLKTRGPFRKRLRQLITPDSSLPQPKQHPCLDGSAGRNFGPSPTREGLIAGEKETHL
Kind of data set: [3H]GABA uptake assay, CHO cells stably expressing hBGT1. It is filed as cell-based. Here is the method: All selected compounds were tested for their ability to inhibit human BGT1 (hBGT1) function.
The CHO cells were placed in 96-well plates (approximately 50,000 cells/well) for about 24 h before the experiment. […] After incubation, cells were washed 3 times with 100 μL/well ice-cold assay buffer, 150 μL/well MicroScint20 (PerkinElmer) was subsequently added before the plate was shaken for at least 1 h. The radioactivity of each well of the plate was measured on a TopCount NXT scintillation counter. […] Data presented are the pooled data of at least three independent experiments with three technical replicates if not stated otherwise in figure legends. Concentration–response curves were fitted by nonlinear regression to the sigmoidal concentration–response model with GraphPad Prism v 9.0.

For `NC12CC(C(=O)O)(C1)C2` [Compound 9], the IC50 turned out to be 58.3 µM at hGAT3 and 13.9 µM against hBGT1. The inhibition at 100 µM on hGAT3 (CHO, read-out: inhibition of GABA uptake) is around 73%; at hBGT1 (CHO, read-out: inhibition of [3H]GABA uptake) it was 81%. In addition, the “impact on SH-SY5Y viability” value in data set [1] is “no impact”. The “preference for hBGT1 over hGAT3” value at hBGT1 (ratio of IC50 values) is reported as “over 4 fold”.

What is called IC50 is the concentration that gives 50% inhibition. Higher therefore signals weaker potency in that assay. In general, inhibition refers to the drop in the measured response relative to a control, in per cent.
